# Results published in ChEMBL document CHEMBL1156163, “(18)F Labeled benzimidazole derivatives as potential radiotracer for positron emission tomography (PET) tumor imaging” (Bioorg Med Chem, 2010).
# How the values were obtained:
# [1] = Biodistribution in mouse S180 cells xenografted Kunming mouse tumor at 10 to 20 uCi, iv after 120 mins by gamma counting; assay type: ADME, organism-based, Neoplasm, CCRF S-180; details: in vivo, 2 h
# [2] = Ratio of drug uptake in tumor to blood of mouse S180 cells xenografted Kunming mouse at 10 to 20 uCi, iv after 120 mins by gamma counting; assay type: ADME, organism-based, CCRF S-180; details: tumour, 2 h
# [3] = Ratio of drug uptake in tumor to brain of mouse S180 cells xenografted Kunming mouse at 10 to 20 uCi, iv after 120 mins by gamma counting; assay type: ADME, organism-based, CCRF S-180; details: in vivo, 2 h
# Heart [4] = test: Biodistribution in mouse S180 cells xenografted Kunming mouse heart at 10 to 20 uCi, iv after 5 mins by gamma counting; assay type: ADME, organism-based, CCRF S-180; details: in vivo
# Pancreas [5] = test: Biodistribution in mouse S180 cells xenografted Kunming mouse pancreas at 10 to 20 uCi, iv after 5 mins by gamma counting; assay type: ADME, organism-based, CCRF S-180; details: in vivo
# Lung [6] = test: Biodistribution in mouse S180 cells xenografted Kunming mouse lung at 10 to 20 uCi, iv after 5 mins by gamma counting; assay type: ADME, organism-based, CCRF S-180; details: in vivo
# Muscle tissue [7] = test: Biodistribution in mouse S180 cells xenografted Kunming mouse muscle at 10 to 20 uCi, iv after 5 mins by gamma counting; assay type: ADME, organism-based, CCRF S-180; details: in vivo
# Brain [8] = test: Biodistribution in mouse S180 cells xenografted Kunming mouse brain at 10 to 20 uCi, iv after 5 mins by gamma counting; assay type: ADME, organism-based, CCRF S-180; details: in vivo
# [9] = Biodistribution in mouse S180 cells xenografted Kunming mouse tumor at 10 to 20 uCi, iv after 5 mins by gamma counting; assay type: ADME, organism-based, Neoplasm, CCRF S-180; details: in vivo
# [10] = Ratio of drug uptake in tumor to blood of mouse S180 cells xenografted Kunming mouse at 10 to 20 uCi, iv after 5 mins by gamma counting; assay type: ADME, organism-based, CCRF S-180; details: tumour
# [11] = Ratio of drug uptake in tumor to muscle of mouse S180 cells xenografted Kunming mouse at 10 to 20 uCi, iv after 5 mins by gamma counting; assay type: ADME, organism-based, CCRF S-180; details: in vivo
# [12] = Ratio of drug uptake in tumor to brain of mouse S180 cells xenografted Kunming mouse at 10 to 20 uCi, iv after 5 mins by gamma counting; assay type: ADME, organism-based, CCRF S-180; details: in vivo
# Pancreas [13] = test: Biodistribution in mouse S180 cells xenografted Kunming mouse pancreas at 10 to 20 uCi, iv after 15 mins by gamma counting; assay type: ADME, organism-based, CCRF S-180; details: in vivo, 0.25 h
# Muscle tissue [14] = test: Biodistribution in mouse S180 cells xenografted Kunming mouse muscle at 10 to 20 uCi, iv after 15 mins by gamma counting; assay type: ADME, organism-based, CCRF S-180; details: in vivo, 0.25 h
# Blood [15] = test: Biodistribution in mouse S180 cells xenografted Kunming mouse blood at 10 to 20 uCi, iv after 15 mins by gamma counting; assay type: ADME, organism-based, CCRF S-180; details: in vivo, 0.25 h
# Brain [16] = test: Biodistribution in mouse S180 cells xenografted Kunming mouse brain at 10 to 20 uCi, iv after 15 mins by gamma counting; assay type: ADME, organism-based, CCRF S-180; details: in vivo, 0.25 h
# [17] = Biodistribution in mouse S180 cells xenografted Kunming mouse tumor at 10 to 20 uCi, iv after 15 mins by gamma counting; assay type: ADME, organism-based, Neoplasm, CCRF S-180; details: in vivo, 0.25 h
# [18] = Ratio of drug uptake in tumor to blood of mouse S180 cells xenografted Kunming mouse at 10 to 20 uCi, iv after 15 mins by gamma counting; assay type: ADME, organism-based, CCRF S-180; details: tumour, 0.25 h
# [19] = Ratio of drug uptake in tumor to muscle of mouse S180 cells xenografted Kunming mouse at 10 to 20 uCi, iv after 15 mins by gamma counting; assay type: ADME, organism-based, CCRF S-180; details: in vivo, 0.25 h
# [20] = Ratio of drug uptake in tumor to brain of mouse S180 cells xenografted Kunming mouse at 10 to 20 uCi, iv after 15 mins by gamma counting; assay type: ADME, organism-based, CCRF S-180; details: in vivo, 0.25 h
# Heart [21] = test: Biodistribution in mouse S180 cells xenografted Kunming mouse heart at 10 to 20 uCi, iv after 30 mins by gamma counting; assay type: ADME, organism-based, CCRF S-180; details: in vivo, 0.5 h
# Pancreas [22] = test: Biodistribution in mouse S180 cells xenografted Kunming mouse pancreas at 10 to 20 uCi, iv after 30 mins by gamma counting; assay type: ADME, organism-based, CCRF S-180; details: in vivo, 0.5 h
# Lung [23] = test: Biodistribution in mouse S180 cells xenografted Kunming mouse lung at 10 to 20 uCi, iv after 30 mins by gamma counting; assay type: ADME, organism-based, CCRF S-180; details: in vivo, 0.5 h
# Kidney [24] = test: Biodistribution in mouse S180 cells xenografted Kunming mouse kidney at 10 to 20 uCi, iv after 30 mins by gamma counting; assay type: ADME, organism-based, CCRF S-180; details: in vivo, 0.5 h
# Brain [25] = test: Biodistribution in mouse S180 cells xenografted Kunming mouse brain at 10 to 20 uCi, iv after 30 mins by gamma counting; assay type: ADME, organism-based, CCRF S-180; details: in vivo, 0.5 h
# [26] = Biodistribution in mouse S180 cells xenografted Kunming mouse tumor at 10 to 20 uCi, iv after 30 mins by gamma counting; assay type: ADME, organism-based, Neoplasm, CCRF S-180; details: in vivo, 0.5 h
# [27] = Ratio of drug uptake in tumor to muscle of mouse S180 cells xenografted Kunming mouse at 10 to 20 uCi, iv after 30 mins by gamma counting; assay type: ADME, organism-based, CCRF S-180; details: in vivo, 0.5 h
# Heart [28] = test: Biodistribution in mouse S180 cells xenografted Kunming mouse heart at 10 to 20 uCi, iv after 60 mins by gamma counting; assay type: ADME, organism-based, CCRF S-180; details: in vivo, 1 h
# Liver [29] = test: Biodistribution in mouse S180 cells xenografted Kunming mouse liver at 10 to 20 uCi, iv after 60 mins by gamma counting; assay type: ADME, organism-based, CCRF S-180; details: in vivo, 1 h
# Blood [30] = test: Biodistribution in mouse S180 cells xenografted Kunming mouse blood at 10 to 20 uCi, iv after 60 mins by gamma counting; assay type: ADME, organism-based, CCRF S-180; details: in vivo, 1 h
# Brain [31] = test: Biodistribution in mouse S180 cells xenografted Kunming mouse brain at 10 to 20 uCi, iv after 60 mins by gamma counting; assay type: ADME, organism-based, CCRF S-180; details: in vivo, 1 h
# [32] = Biodistribution in mouse S180 cells xenografted Kunming mouse tumor at 10 to 20 uCi, iv after 60 mins by gamma counting; assay type: ADME, organism-based, Neoplasm, CCRF S-180; details: in vivo, 1 h
# [33] = Ratio of drug uptake in tumor to blood of mouse S180 cells xenografted Kunming mouse at 10 to 20 uCi, iv after 60 mins by gamma counting; assay type: ADME, organism-based, CCRF S-180; details: tumour, 1 h
# [34] = Ratio of drug uptake in tumor to muscle of mouse S180 cells xenografted Kunming mouse at 10 to 20 uCi, iv after 60 mins by gamma counting; assay type: ADME, organism-based, CCRF S-180; details: in vivo, 1 h
# [35] = Ratio of drug uptake in tumor to brain of mouse S180 cells xenografted Kunming mouse at 10 to 20 uCi, iv after 60 mins by gamma counting; assay type: ADME, organism-based, CCRF S-180; details: in vivo, 1 h
# Heart [36] = test: Biodistribution in mouse S180 cells xenografted Kunming mouse heart at 10 to 20 uCi, iv after 120 mins by gamma counting; assay type: ADME, organism-based, CCRF S-180; details: in vivo, 2 h
# Liver [37] = test: Biodistribution in mouse S180 cells xenografted Kunming mouse liver at 10 to 20 uCi, iv after 120 mins by gamma counting; assay type: ADME, organism-based, CCRF S-180; details: in vivo, 2 h
# Pancreas [38] = test: Biodistribution in mouse S180 cells xenografted Kunming mouse pancreas at 10 to 20 uCi, iv after 120 mins by gamma counting; assay type: ADME, organism-based, CCRF S-180; details: in vivo, 2 h
# Lung [39] = test: Biodistribution in mouse S180 cells xenografted Kunming mouse lung at 10 to 20 uCi, iv after 120 mins by gamma counting; assay type: ADME, organism-based, CCRF S-180; details: in vivo, 2 h
# Kidney [40] = test: Biodistribution in mouse S180 cells xenografted Kunming mouse kidney at 10 to 20 uCi, iv after 120 mins by gamma counting; assay type: ADME, organism-based, CCRF S-180; details: in vivo, 2 h
# Muscle tissue [41] = test: Biodistribution in mouse S180 cells xenografted Kunming mouse muscle at 10 to 20 uCi, iv after 120 mins by gamma counting; assay type: ADME, organism-based, CCRF S-180; details: in vivo, 2 h
# Blood [42] = test: Biodistribution in mouse S180 cells xenografted Kunming mouse blood at 10 to 20 uCi, iv after 120 mins by gamma counting; assay type: ADME, organism-based, CCRF S-180; details: in vivo, 2 h
# Brain [43] = test: Biodistribution in mouse S180 cells xenografted Kunming mouse brain at 10 to 20 uCi, iv after 120 mins by gamma counting; assay type: ADME, organism-based, CCRF S-180; details: in vivo, 2 h
smiles,measurement,setting,value
N[C@@H](Cc1ccc(OCC[18F])cc1)C(=O)O [FLORETYROSINE F18],Drug uptake,[1],2.15 % ID/g
same,Ratio,[2],1.92
same,Ratio,[3],2.95
same,Drug uptake,Heart [4],5.89 % ID/g
same,Drug uptake,Pancreas [5],0.93 % ID/g
same,Drug uptake,Lung [6],16.8 % ID/g
same,Drug uptake,Muscle tissue [7],2.88 % ID/g
same,Drug uptake,Brain [8],0.99 % ID/g
same,Drug uptake,[9],2.08 % ID/g
same,Ratio,[10],0.31
same,Ratio,[11],0.72
same,Ratio,[12],2.1
same,Drug uptake,Pancreas [13],0.22 % ID/g
same,Drug uptake,Muscle tissue [14],3.34 % ID/g
same,Drug uptake,Blood [15],3.3 % ID/g
same,Drug uptake,Brain [16],1.03 % ID/g
same,Drug uptake,[17],2.5 % ID/g
same,Ratio,[18],0.76
same,Ratio,[19],0.75
same,Ratio,[20],2.43
same,Drug uptake,Heart [21],3.27 % ID/g
same,Drug uptake,Pancreas [22],0.11 % ID/g
same,Drug uptake,Lung [23],8.57 % ID/g
same,Drug uptake,Kidney [24],2.38 % ID/g
same,Drug uptake,Brain [25],1.29 % ID/g
same,Drug uptake,[26],3.28 % ID/g
same,Ratio,[27],0.62
same,Drug uptake,Heart [28],3.14 % ID/g
same,Drug uptake,Liver [29],3.56 % ID/g
same,Drug uptake,Blood [30],2.51 % ID/g
same,Drug uptake,Brain [31],0.94 % ID/g
same,Drug uptake,[32],2.75 % ID/g
same,Ratio,[33],1.1
same,Ratio,[34],1.23
same,Ratio,[35],2.92
same,Drug uptake,Heart [36],0.94 % ID/g
same,Drug uptake,Liver [37],1.22 % ID/g
same,Drug uptake,Pancreas [38],0.09 % ID/g
same,Drug uptake,Lung [39],1.55 % ID/g
same,Drug uptake,Kidney [40],1.29 % ID/g
same,Drug uptake,Muscle tissue [41],2.1 % ID/g
same,Drug uptake,Blood [42],1.12 % ID/g
same,Drug uptake,Brain [43],0.73 % ID/g
OC[C@H]1O[C@@H](O)[C@H]([18F])[C@@H](O)[C@@H]1O [FLUDEOXYGLUCOSE-F18],Drug uptake,[1],1.7 % ID/g
same,Ratio,[2],15.85
same,Ratio,[3],1.33
same,Drug uptake,Heart [4],2.6 % ID/g
same,Drug uptake,Pancreas [5],1.31 % ID/g
same,Drug uptake,Lung [6],1.52 % ID/g
same,Drug uptake,Muscle tissue [7],1.56 % ID/g
same,Drug uptake,Brain [8],2.4 % ID/g
same,Drug uptake,[9],1.27 % ID/g
same,Ratio,[10],1.17
same,Ratio,[11],0.81
same,Ratio,[12],0.53
same,Drug uptake,Pancreas [13],0.95 % ID/g
same,Drug uptake,Muscle tissue [14],1.14 % ID/g
same,Drug uptake,Blood [15],0.46 % ID/g
same,Drug uptake,Brain [16],2.63 % ID/g
same,Drug uptake,[17],1.56 % ID/g
same,Ratio,[18],3.42
same,Ratio,[19],1.37
same,Ratio,[20],0.59
same,Drug uptake,Heart [21],2.69 % ID/g
same,Drug uptake,Pancreas [22],0.9 % ID/g
same,Drug uptake,Lung [23],0.64 % ID/g
same,Drug uptake,Kidney [24],0.61 % ID/g
same,Drug uptake,Brain [25],3.07 % ID/g
same,Drug uptake,[26],1.86 % ID/g
same,Ratio,[27],1.75
same,Drug uptake,Heart [28],3.24 % ID/g
same,Drug uptake,Liver [29],0.22 % ID/g
same,Drug uptake,Blood [30],0.11 % ID/g
same,Drug uptake,Brain [31],2.11 % ID/g
same,Drug uptake,[32],2.16 % ID/g
same,Ratio,[33],19.47
same,Ratio,[34],2.23
same,Ratio,[35],1.02
same,Drug uptake,Heart [36],6.27 % ID/g
same,Drug uptake,Liver [37],0.2 % ID/g
same,Drug uptake,Pancreas [38],0.78 % ID/g
same,Drug uptake,Lung [39],0.52 % ID/g
same,Drug uptake,Kidney [40],0.25 % ID/g
same,Drug uptake,Muscle tissue [41],0.78 % ID/g
same,Drug uptake,Blood [42],0.11 % ID/g
same,Drug uptake,Brain [43],1.28 % ID/g
